{"source": "patent US5164196A", "about": "(priority 1990, dated 1992)", "molecular_target": "crotoxin complex (1:1 complex of crotoxin A and crotoxin B) from Crotalus durissus terrificus venom (Crotalus durissus terrificus, UniProt P0CAS2)", "sequence (P0CAS2 whole entry, looked up, one chain of several)": "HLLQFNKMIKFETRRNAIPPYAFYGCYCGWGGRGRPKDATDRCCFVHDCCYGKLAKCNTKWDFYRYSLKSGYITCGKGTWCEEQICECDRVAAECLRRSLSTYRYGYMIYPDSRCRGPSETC", "format": "biochemical"}
{"smiles": "O=C(CBr)c1ccc(Br)cc1", "note": "[p-bromophenacylbromide]", "values": [{"measurement": "reaction with p-bromophenacyl bromide", "value": "does not react"}]}
